Results published in patent US20240409585A1, “MACROCYCLIC IMMUNOMODULATORS” (priority 2021, published 2024).
Bridge positions count the residues as written; N and C are the ends. Square brackets hold non-standard residues; d marks the D form. Peptide text beside a SMILES is read from it. * marks the point of attachment. ξ: configuration not given here. Tyr(3-NO2) = N[C@@H](Cc1ccc(O)c([N+](=O)[O-])c1)C(=O)O; Phe(4-COOH) = N[C@@H](Cc1ccc(C(=O)O)cc1)C(=O)O; Phe(4-CH2NH2) = NCc1ccc(C[C@H](N)C(=O)O)cc1; Bip = N[C@@H](Cc1ccc(-c2ccccc2)cc1)C(=O)O; Phe(3-Me) = Cc1cccc(C[C@H](N)C(=O)O)c1; aIle = CC[C@@H](C)[C@H](N)C(=O)O; 3Pal = N[C@@H](Cc1cccnc1)C(=O)O; d4Pal = N[C@H](Cc1ccncc1)C(=O)O; Cha = N[C@@H](CC1CCCCC1)C(=O)O; Cit = NC(=O)NCCC[C@H](N)C(=O)O; Thr(3ξ) = CC(O)[C@H](N)C(=O)O; Ala(CN) = N#CC[C@H](N)C(=O)O; hSer = N[C@@H](CCO)C(=O)O; Carboxymethyl = O=C(O)C*; NMeA = CN[C@@H](C)C(=O)O; Orn = NCCC[C@H](N)C(=O)O; Dab = NCC[C@H](N)C(=O)O; Dap = NC[C@H](N)C(=O)O; ξV = CC(C)C(N)C(=O)O

Each compound was assayed against T1, PE-labeled human PD-L1-Ig binding to Jurkat cell line over-expressing human PD-1 (Jurkat-PD-1) (Homo sapiens, UniProt Q15116) (assay: Jurkat-PD-1 Cell Binding High-Content Screening Assay (CBA): Method 1). Settings: Jurkat-hPD-1 cells, PE-labeled PD-L1-Ig 20 nM final; read-out: Jurkat HPDL1 PD1 IC50 (uM) (Method 1).
T1 construct: expressed in transfected cells; host or cells: Jurkat
T1 sequence (Q15116 25-288): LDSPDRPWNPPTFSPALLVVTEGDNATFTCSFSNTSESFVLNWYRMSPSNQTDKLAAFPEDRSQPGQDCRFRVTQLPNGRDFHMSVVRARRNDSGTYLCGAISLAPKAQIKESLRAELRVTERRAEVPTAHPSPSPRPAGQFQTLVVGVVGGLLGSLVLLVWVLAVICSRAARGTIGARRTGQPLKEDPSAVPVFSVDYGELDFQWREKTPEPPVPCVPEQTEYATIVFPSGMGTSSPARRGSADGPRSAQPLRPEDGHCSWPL

Row | Compound | IC50
1 | CC(C)C[C@@H]1NC(=O)[C@H](CCO)NC(=O)[C@@H](CC(C)C)NC(=O)[C@H](C)N(C)C(=O)[C@H](CCCNC(N)=O)NC(=O)[C@H](Cc2ccc(-c3ccccc3)cc2)NC(=O)[C@H](C(C)C)NC(=O)[C@H](Cc2c[nH]c3ccccc23)NC(=O)[C@H](CC(=O)O)NC(=O)[C@H](Cc2ccc(O)cc2)NC(=O)[C@H](Cc2ccccc2)NC(=O)CSC[C@@H](C(=O)N[C@@H](C)C(N)=O)NC(=O)[C@H](C(C)O)NC(=O)[C@H](C(C)C)NC1=O (stereo partly drawn) [Compound 2032] ({CH2CO}-FYDWV[Bip][Cit][NMeA][dL][hSer]LV[Thr(3ξ)]CA-NH2; thioether N-14) | 0.05 µM
2 | CC(C)C[C@@H]1NC(=O)[C@H](CCCNC(=N)N)NC(=O)[C@@H](Cc2ccncc2)NC(=O)[C@H](C)N(C)C(=O)[C@H](CCCNC(=N)N)NC(=O)[C@H](Cc2ccc(-c3ccccc3)cc2)NC(=O)[C@H](C(C)C)NC(=O)[C@H](Cc2c[nH]c3ccccc23)NC(=O)[C@H](CC(=O)O)NC(=O)[C@H](Cc2ccc(O)cc2)NC(=O)[C@H](Cc2ccccc2)NC(=O)CSC[C@@H](C(=O)N[C@@H](C)C(N)=O)NC(=O)[C@H]([C@@H](C)O)NC(=O)[C@H](C(C)C)NC1=O [Compound 1072] ({CH2CO}-FYDWV[Bip]R[NMeA][d4Pal]RLVTCA-NH2; thioether N-14) | 0.18 µM
3 | CC(C)C[C@@H]1NC(=O)[C@H](CCN)NC(=O)[C@@H](CC(C)C)NC(=O)[C@H](C)N(C)C(=O)[C@H](CCCNC(=N)N)NC(=O)[C@H](Cc2ccc(-c3ccccc3)cc2)NC(=O)[C@H](C(C)C)NC(=O)[C@H](Cc2c[nH]c3ccccc23)NC(=O)[C@H](CC(=O)O)NC(=O)[C@H](Cc2ccc(O)cc2)NC(=O)[C@H](CCN)NC(=O)CSC[C@@H](C(=O)N[C@@H](C)C(N)=O)NC(=O)[C@H]([C@@H](C)O)NC(=O)[C@H](C(C)C)NC1=O [Compound 1340] ({CH2CO}-[Dab]YDWV[Bip]R[NMeA][dL][Dab]LVTCA-NH2; thioether N-14) | 0.02 µM
4 | CC(C)C[C@@H]1NC(=O)[C@H](Cc2c[nH]c3ccccc23)NC(=O)[C@H](CC(=O)O)NC(=O)[C@H](Cc2ccc(C(=O)O)cc2)NC(=O)[C@H](Cc2cccnc2)NC(=O)CSC[C@@H](C(=O)N[C@@H](C)C(N)=O)NC(=O)[C@H](CO)NC(=O)[C@H](C(C)C)NC(=O)[C@H](CC(C)C)NC(=O)[C@H](CC(N)=O)NC(=O)[C@@H](C)NC(=O)[C@H](C)N(C)C(=O)[C@H](C(C)C)NC(=O)[C@H](Cc2ccc(-c3ccccc3)cc2)NC1=O [Compound 1747] ({CH2CO}-[3Pal][Phe(4-COOH)]DWL[Bip]V[NMeA][dA]NLVSCA-NH2; thioether N-14) | 0.02 µM
5 | CC(C)C[C@@H]1NC(=O)[C@H](CCCCN)NC(=O)[C@@H](CC(C)C)NC(=O)[C@H](C)N(C)C(=O)[C@H](Cc2cnc[nH]2)NC(=O)[C@H](Cc2ccc(-c3ccccc3)cc2)NC(=O)[C@H](C(C)C)NC(=O)[C@H](Cc2c[nH]c3ccccc23)NC(=O)[C@H](CC(=O)O)NC(=O)[C@H](Cc2ccc(O)cc2)NC(=O)[C@H](CC(N)=O)NC(=O)CSC[C@@H](C(=O)NCC(N)=O)NC(=O)[C@H]([C@@H](C)O)NC(=O)[C@H](C(C)C)NC1=O [Compound 1484] ({CH2CO}-NYDWV[Bip]H[NMeA][dL]KLVTCG-NH2; thioether N-14) | 0.07 µM
6 | CC[C@@H](C)[C@@H]1NC(=O)[C@H](Cc2ccc(-c3ccccc3)cc2)NC(=O)[C@H](CC(C)C)NC(=O)[C@H](Cc2c[nH]c3ccccc23)NC(=O)[C@H](CC(=O)O)NC(=O)[C@H](Cc2ccc(C(=O)O)cc2)NC(=O)[C@H](Cc2ccc(OCC(=O)O)cc2)NC(=O)CSC[C@@H](C(=O)N[C@@H](CCCCN)C(N)=O)NC(=O)[C@H](CC#N)NC(=O)C(C(C)C)NC(=O)[C@H](CC(C)C)NC(=O)[C@H](CC(N)=O)NC(=O)[C@@H](CC(C)C)NC(=O)[C@H](C)N(C)C1=O (stereo partly drawn) [Compound 2106] ({CH2CO}-Y(Carboxymethyl)[Phe(4-COOH)]DWL[Bip][aIle][NMeA][dL]NL[ξV][Ala(CN)]CK-NH2; thioether N-14) | 0.06 µM
7 | CC(C)C[C@@H]1NC(=O)[C@H](Cc2c[nH]c3ccccc23)NC(=O)[C@H](CC(=O)O)NC(=O)[C@H](Cc2ccc(CN)cc2)NC(=O)[C@H](Cc2ccccc2)NC(=O)CSC[C@@H](C(=O)N[C@@H](C)C(N)=O)NC(=O)[C@H](CO)NC(=O)[C@H](C(C)C)NC(=O)[C@H](CC(C)C)NC(=O)[C@H](CC(N)=O)NC(=O)[C@@H](C)NC(=O)[C@H](C)N(C)C(=O)[C@H](C(C)C)NC(=O)[C@H](Cc2ccc(-c3ccccc3)cc2)NC1=O [Compound 1750] ({CH2CO}-F[Phe(4-CH2NH2)]DWL[Bip]V[NMeA][dA]NLVSCA-NH2; thioether N-14) | 0.02 µM
8 | CC(C)C[C@@H]1NC(=O)[C@H](CCCN)NC(=O)[C@@H](CC(C)C)NC(=O)[C@H](C)N(C)C(=O)[C@H](CCCNC(=N)N)NC(=O)[C@H](Cc2ccc(-c3ccccc3)cc2)NC(=O)[C@H](C(C)C)NC(=O)[C@H](Cc2c[nH]c3ccccc23)NC(=O)[C@H](CC(=O)O)NC(=O)[C@H](Cc2ccc(O)cc2)NC(=O)[C@H](Cc2cnc[nH]2)NC(=O)CSC[C@@H](C(=O)N[C@@H](C)C(N)=O)NC(=O)[C@H]([C@@H](C)O)NC(=O)[C@H](C(C)C)NC1=O [Compound 1144] ({CH2CO}-HYDWV[Bip]R[NMeA][dL][Orn]LVTCA-NH2; thioether N-14) | 0.05 µM
9 | CC(C)C[C@@H]1NC(=O)[C@H](CCCN)NC(=O)[C@@H](CC(C)C)NC(=O)[C@H](C)N(C)C(=O)[C@H](CCC(=O)O)NC(=O)[C@H](Cc2ccc(-c3ccccc3)cc2)NC(=O)[C@H](C(C)C)NC(=O)[C@H](Cc2c[nH]c3ccccc23)NC(=O)[C@H](CC(=O)O)NC(=O)[C@H](Cc2ccc(O)cc2)NC(=O)[C@H](Cc2ccccc2)NC(=O)CSC[C@@H](C(=O)N[C@@H](CCC(=O)O)C(N)=O)NC(=O)[C@H]([C@@H](C)O)NC(=O)[C@H](C(C)C)NC1=O [Compound 1163] ({CH2CO}-FYDWV[Bip]E[NMeA][dL][Orn]LVTCE-NH2; thioether N-14) | 0.04 µM
10 | Cc1cccc(C[C@@H]2NC(=O)[C@H](CC(=O)O)NC(=O)[C@H](Cc3ccc(OCC(=O)O)cc3)NC(=O)[C@H]([C@@H](C)O)NC(=O)CSC[C@@H](C(N)=O)NC(=O)[C@H]([C@@H](C)O)NC(=O)[C@H](C(C)C)NC(=O)[C@H](CC3CCCCC3)NC(=O)[C@H](CCN)NC(=O)[C@@H](CC(C)C)NC(=O)[C@H](C)N(C)C(=O)[C@H](Cc3ccc(OCC(=O)O)cc3)NC(=O)[C@H](Cc3ccc(-c4ccccc4)cc3)NC(=O)[C@H](Cc3ccc(OCC(=O)O)cc3)NC2=O)c1 [Compound 1672] ({CH2CO}-TY(Carboxymethyl)D[Phe(3-Me)]Y(Carboxymethyl)[Bip]Y(Carboxymethyl)[NMeA][dL][Dab][Cha]VTC-NH2; thioether N-14) | 0.09 µM
11 | CC(C)C[C@@H]1NC(=O)[C@H](CCCN)NC(=O)[C@@H](CC(C)C)NC(=O)[C@H](C)N(C)C(=O)[C@H](CCCNC(=N)N)NC(=O)[C@H](Cc2ccc(-c3ccccc3)cc2)NC(=O)[C@H](C(C)C)NC(=O)[C@H](Cc2c[nH]c3ccccc23)NC(=O)[C@H](CC(=O)O)NC(=O)[C@H](Cc2ccc(O)cc2)NC(=O)[C@H](Cc2ccccc2)NC(=O)CSC[C@@H](C(=O)N[C@@H](CO)C(N)=O)NC(=O)[C@H]([C@@H](C)O)NC(=O)[C@H](C(C)C)NC1=O [Compound 1176] ({CH2CO}-FYDWV[Bip]R[NMeA][dL][Orn]LVTCS-NH2; thioether N-14) | 0.07 µM
12 | CC(C)C[C@@H]1NC(=O)[C@H](CCN)NC(=O)[C@@H](CC(C)C)NC(=O)[C@H](C)N(C)C(=O)[C@H](CCCNC(=N)N)NC(=O)[C@H](Cc2ccc(-c3ccccc3)cc2)NC(=O)[C@H](C(C)C)NC(=O)[C@H](Cc2c[nH]c3ccccc23)NC(=O)[C@H](CC(=O)O)NC(=O)[C@H](Cc2ccc(O)c([N+](=O)[O-])c2)NC(=O)[C@H](Cc2cccnc2)NC(=O)CSC[C@@H](C(=O)N[C@@H](C)C(N)=O)NC(=O)[C@H]([C@@H](C)O)NC(=O)[C@H](C(C)C)NC1=O [Compound 1155] ({CH2CO}-[3Pal][Tyr(3-NO2)]DWV[Bip]R[NMeA][dL][Dab]LVTCA-NH2; thioether N-14) | 0.02 µM
13 | CC(C)C[C@@H]1NC(=O)[C@H](CCN)NC(=O)[C@@H](CC(C)C)NC(=O)[C@H](C)N(C)C(=O)[C@H](CCC(=O)O)NC(=O)[C@H](Cc2ccc(-c3ccccc3)cc2)NC(=O)[C@H](C(C)C)NC(=O)[C@H](Cc2c[nH]c3ccccc23)NC(=O)[C@H](CC(=O)O)NC(=O)[C@H](Cc2ccc(OCC(=O)O)cc2)NC(=O)[C@H](Cc2ccc(OCC(=O)O)cc2)NC(=O)CSC[C@@H](C(=O)N[C@@H](C)C(N)=O)NC(=O)[C@H](CO)NC(=O)[C@H](C(C)C)NC1=O [Compound 1577] ({CH2CO}-Y(Carboxymethyl)Y(Carboxymethyl)DWV[Bip]E[NMeA][dL][Dab]LVSCA-NH2; thioether N-14) | 0.03 µM
14 | CC(C)C[C@@H]1NC(=O)[C@H](CCN)NC(=O)[C@@H](CC(C)C)NC(=O)[C@H](C)N(C)C(=O)[C@H](Cc2cnc[nH]2)NC(=O)[C@H](Cc2ccc(-c3ccccc3)cc2)NC(=O)[C@H](C(C)C)NC(=O)[C@H](Cc2c[nH]c3ccccc23)NC(=O)[C@H](CC(=O)O)NC(=O)[C@H](Cc2ccc(C(=O)O)cc2)NC(=O)[C@H](CN)NC(=O)CSC[C@@H](C(=O)N[C@@H](C)C(N)=O)NC(=O)[C@H]([C@@H](C)O)NC(=O)[C@H](C(C)C)NC1=O [Compound 1439] ({CH2CO}-[Dap][Phe(4-COOH)]DWV[Bip]H[NMeA][dL][Dab]LVTCA-NH2; thioether N-14) | 0.06 µM
15 | CC(C)C[C@@H]1NC(=O)[C@H](CCN)NC(=O)[C@@H](CC(C)C)NC(=O)[C@H](C)N(C)C(=O)[C@H](CCCNC(=N)N)NC(=O)[C@H](Cc2ccc(-c3ccccc3)cc2)NC(=O)[C@H](C(C)C)NC(=O)[C@H](Cc2c[nH]c3ccccc23)NC(=O)[C@H](CC(=O)O)NC(=O)[C@H](Cc2ccc(O)cc2)NC(=O)[C@H](CCCNC(=N)N)NC(=O)CSC[C@@H](C(=O)N[C@@H](C)C(N)=O)NC(=O)[C@H]([C@@H](C)O)NC(=O)[C@H](C(C)C)NC1=O [Compound 1343] ({CH2CO}-RYDWV[Bip]R[NMeA][dL][Dab]LVTCA-NH2; thioether N-14) | 0.04 µM
